The record followed here is ChEMBL document CHEMBL4665688, “Discovery of AB680: A Potent and Selective Inhibitor of CD73” (J Med Chem, 2020).

The nature of data set [1]: Clearance in human at 25 mg, iv administered as single infusion for 30 to 60 mins. As to conditions: in vivo, time 30-60 min. Format: ADME, organism-based.
Data set [2] is described as follows: Volume of distribution at steady state in human at 16 mg, iv administered as single infusion for 30 to 60 mins. Format: ADME, organism-based. As to conditions: in vivo, time 30-60 min, read-out: Vdss.
Data set [3] addresses Voltage-gated inwardly rectifying potassium channel KCNH2 (Homo sapiens, UniProt Q12809). Kind of data set: Inhibition of human ERG.
The target in data set [4] is T1, Cytochrome P450 1A2 (Homo sapiens, UniProt P05177).
T1 sequence (P05177 whole entry): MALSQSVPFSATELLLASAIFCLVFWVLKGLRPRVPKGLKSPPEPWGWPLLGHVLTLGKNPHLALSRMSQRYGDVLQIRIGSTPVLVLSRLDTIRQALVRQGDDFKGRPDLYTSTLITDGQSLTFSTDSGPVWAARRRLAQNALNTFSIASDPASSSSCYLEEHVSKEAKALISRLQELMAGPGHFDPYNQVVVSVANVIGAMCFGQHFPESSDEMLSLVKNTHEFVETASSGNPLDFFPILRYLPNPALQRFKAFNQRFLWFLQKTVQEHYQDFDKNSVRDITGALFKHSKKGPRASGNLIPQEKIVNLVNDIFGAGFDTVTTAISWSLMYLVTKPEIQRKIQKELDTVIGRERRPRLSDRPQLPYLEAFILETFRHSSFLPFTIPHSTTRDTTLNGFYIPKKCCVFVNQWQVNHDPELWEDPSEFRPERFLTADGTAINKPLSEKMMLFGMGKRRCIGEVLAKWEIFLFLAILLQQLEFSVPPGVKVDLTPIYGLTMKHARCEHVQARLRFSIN
Kind of data set: Time dependent inhibition of CYP1A2 in human liver microsomes using phenacetin as substrate in presence of NADPH by LC-MS/MS analysis. In kind it is ADME.

A short description of data set [5]: Cmax in human at 25 mg, iv administered as single infusion for 30 to 60 mins. In kind it is ADME, organism-based. Also noted: route intravenous, dose 25 mg, time 30-60. The note with it: in vivo.
The target of data set [6] is Cytochrome P450 2C9 (Homo sapiens, UniProt P11712). Nature of the data set: Inhibition of CYP2C9 in human liver microsomes using diclofenac as substrate incubated for 5 to 20 mins in presence of NADPH by LC-MS/MS analysis. As to conditions: time 5-20 min. In kind it is ADME. (In general: Microsomes from liver hold many membrane-bound enzymes, among them those of drug oxidation.)
Cytochrome P450 2C9, sequence (P11712 whole entry): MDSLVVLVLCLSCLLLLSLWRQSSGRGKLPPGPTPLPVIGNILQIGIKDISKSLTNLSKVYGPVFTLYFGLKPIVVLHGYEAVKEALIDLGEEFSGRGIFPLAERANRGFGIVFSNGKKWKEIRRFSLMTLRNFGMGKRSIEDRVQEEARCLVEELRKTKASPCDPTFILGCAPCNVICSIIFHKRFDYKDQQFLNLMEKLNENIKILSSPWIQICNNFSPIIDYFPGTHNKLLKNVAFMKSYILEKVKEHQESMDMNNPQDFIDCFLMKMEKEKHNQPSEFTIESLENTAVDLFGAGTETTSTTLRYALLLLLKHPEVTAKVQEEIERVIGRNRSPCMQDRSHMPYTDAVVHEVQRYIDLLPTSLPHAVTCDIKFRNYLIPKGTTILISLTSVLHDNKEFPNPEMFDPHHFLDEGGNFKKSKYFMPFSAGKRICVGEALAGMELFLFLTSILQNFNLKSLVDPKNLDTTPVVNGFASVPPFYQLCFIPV

Data set [7] deals with T2, Cytochrome P450 2B6 (Homo sapiens, UniProt P20813).
T2 sequence (P20813 whole entry): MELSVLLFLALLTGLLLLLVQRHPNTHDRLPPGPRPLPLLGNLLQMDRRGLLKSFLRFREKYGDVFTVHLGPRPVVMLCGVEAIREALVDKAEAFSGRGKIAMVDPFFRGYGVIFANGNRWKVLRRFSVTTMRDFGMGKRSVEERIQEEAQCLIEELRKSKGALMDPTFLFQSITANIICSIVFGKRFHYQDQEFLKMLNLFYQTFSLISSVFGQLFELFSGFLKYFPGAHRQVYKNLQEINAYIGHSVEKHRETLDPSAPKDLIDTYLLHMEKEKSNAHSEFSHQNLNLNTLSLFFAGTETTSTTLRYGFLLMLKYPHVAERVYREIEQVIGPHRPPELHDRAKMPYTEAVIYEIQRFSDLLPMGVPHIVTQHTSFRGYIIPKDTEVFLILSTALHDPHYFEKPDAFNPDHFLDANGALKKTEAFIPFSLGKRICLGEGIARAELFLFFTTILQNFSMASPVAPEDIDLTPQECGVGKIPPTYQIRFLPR
Nature of the data set: Induction of CYP2B6 (unknown origin) assessed as effect on CYP2B6 mRNA expression. Format: ADME.

Data set [8] concerns the target T3, Cytochrome P450 3A4 (Homo sapiens, UniProt P08684). Nature of the data set: Induction of CYP3A4 (unknown origin) assessed as effect on CYP3A4 mRNA expression. Format: ADME.
Data set [9] concerns the target Cytochrome P450 2D6 (Homo sapiens, UniProt P10635). Kind of data set: Inhibition of CYP2D6 in human liver microsomes using dextromethorphan as substrate incubated for 5 to 20 mins in presence of NADPH by LC-MS/MS analysis. Format: ADME. The note with it: time 5-20 min.
Data set [10] in a line: Volume of distribution at steady state in human at 25 mg, iv administered as single infusion for 30 to 60 mins. In kind it is ADME, organism-based. The note with it: in vivo, time 30-60 min, read-out: Vdss.
The nature of data set [11]: Chemical stability of the compound in acidic condition. Format: physicochemical.
Data set [12] can be described thus: Chemical stability of the compound in basic condition. Format: physicochemical.
The target of data set [13] is T3, Cytochrome P450 3A4. Nature of the data set: Time dependent inhibition of CYP3A4 in human liver microsomes using midazolam as substrate in presence of NADPH by LC-MS/MS analysis. In kind it is ADME.
Data set [14] addresses T4, Ectonucleoside triphosphate diphosphohydrolase 1 (Homo sapiens, UniProt P49961).
T4 sequence (P49961 whole entry): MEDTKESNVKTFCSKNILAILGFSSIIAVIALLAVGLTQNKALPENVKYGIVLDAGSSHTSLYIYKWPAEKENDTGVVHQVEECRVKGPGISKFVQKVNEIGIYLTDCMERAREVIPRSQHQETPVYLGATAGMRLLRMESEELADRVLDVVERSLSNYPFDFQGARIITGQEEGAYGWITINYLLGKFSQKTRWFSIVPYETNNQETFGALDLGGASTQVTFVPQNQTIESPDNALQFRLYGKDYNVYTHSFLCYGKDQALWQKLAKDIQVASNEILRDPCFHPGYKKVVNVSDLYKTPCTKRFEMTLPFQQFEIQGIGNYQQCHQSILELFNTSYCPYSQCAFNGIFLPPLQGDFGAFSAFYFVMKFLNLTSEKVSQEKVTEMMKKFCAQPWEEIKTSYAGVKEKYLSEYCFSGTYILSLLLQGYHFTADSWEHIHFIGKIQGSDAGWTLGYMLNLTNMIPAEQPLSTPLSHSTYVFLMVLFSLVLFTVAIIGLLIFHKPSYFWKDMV
Kind of data set: Inhibition of CD39 (unknown origin).

In data set [15] the target is T3, Cytochrome P450 3A4. Kind of data set: Inhibition of CYP3A4 in human liver microsomes using midazolam as substrate incubated for 5 to 20 mins in presence of NADPH by LC-MS/MS analysis. As to conditions: time 5-20 min. In kind it is ADME.
Data set [16] in a line: Half life in human at 25 mg, iv administered as single infusion for 30 to 60 mins. In kind it is ADME, organism-based. As to conditions: in vivo, time 30-60 min.
Data set [17] in a line: Half life in human at 16 mg, iv administered as single infusion for 30 to 60 mins. Format: ADME, organism-based. As to conditions: in vivo, time 30-60 min.
Data set [18] concerns the target Cytochrome P450 2C19 (Homo sapiens, UniProt P33261). Kind of data set: Time dependent inhibition of CYP2C19 in human liver microsomes using s-mephenytoin as substrate in presence of NADPH by LC-MS/MS analysis. Format: ADME.
Data set [19] deals with T5, 5'-nucleotidase (Homo sapiens, UniProt P21589). Nature of the data set: Inhibition of human CD73 expressed in CHO cells using AMP as substrate preincubated for 60 mins followed by substrate addition and measured after 60 mins by PiColorLock gold reagent based colorimetric assay. Format: cell-based.
T5 sequence (P21589 whole entry): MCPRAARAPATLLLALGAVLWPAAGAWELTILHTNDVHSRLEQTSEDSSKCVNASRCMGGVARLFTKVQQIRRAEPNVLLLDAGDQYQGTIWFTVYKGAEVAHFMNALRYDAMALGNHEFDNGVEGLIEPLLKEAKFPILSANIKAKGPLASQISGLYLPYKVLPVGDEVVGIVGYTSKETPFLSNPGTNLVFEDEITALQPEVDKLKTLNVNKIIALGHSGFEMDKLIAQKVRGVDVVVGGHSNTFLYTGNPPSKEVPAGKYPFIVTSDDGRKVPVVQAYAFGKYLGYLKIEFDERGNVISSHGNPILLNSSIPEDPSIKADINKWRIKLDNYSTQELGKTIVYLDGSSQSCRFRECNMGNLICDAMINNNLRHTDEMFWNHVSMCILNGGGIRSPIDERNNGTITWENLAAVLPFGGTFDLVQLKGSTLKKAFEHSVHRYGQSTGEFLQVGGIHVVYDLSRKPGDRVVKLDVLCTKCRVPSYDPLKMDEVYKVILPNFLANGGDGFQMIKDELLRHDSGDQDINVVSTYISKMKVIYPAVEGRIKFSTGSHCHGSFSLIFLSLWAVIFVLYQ
The target of data set [20] is T5, 5'-nucleotidase. Nature of the data set: Inhibition of CD73 in human CD8-positive T cells using AMP as substrate preincubated for 60 mins followed by substrate addition and measured after 2.5 hrs by PiColorLock gold reagent based colorimetric assay. In kind it is cell-based, CD8-positive T cell.
The target in data set [21] is T5, 5'-nucleotidase. Nature of the data set: Inhibition of CD73 in human PBMC using AMP as substrate preincubated for 60 mins followed by substrate addition and measured after 2.5 hrs by PiColorLock gold reagent based colorimetric assay. Format: tissue-based.
For data set [22], the target named is T5, 5'-nucleotidase. Kind of data set: Inhibition of soluble human CD73.

T3 sequence (P08684 whole entry): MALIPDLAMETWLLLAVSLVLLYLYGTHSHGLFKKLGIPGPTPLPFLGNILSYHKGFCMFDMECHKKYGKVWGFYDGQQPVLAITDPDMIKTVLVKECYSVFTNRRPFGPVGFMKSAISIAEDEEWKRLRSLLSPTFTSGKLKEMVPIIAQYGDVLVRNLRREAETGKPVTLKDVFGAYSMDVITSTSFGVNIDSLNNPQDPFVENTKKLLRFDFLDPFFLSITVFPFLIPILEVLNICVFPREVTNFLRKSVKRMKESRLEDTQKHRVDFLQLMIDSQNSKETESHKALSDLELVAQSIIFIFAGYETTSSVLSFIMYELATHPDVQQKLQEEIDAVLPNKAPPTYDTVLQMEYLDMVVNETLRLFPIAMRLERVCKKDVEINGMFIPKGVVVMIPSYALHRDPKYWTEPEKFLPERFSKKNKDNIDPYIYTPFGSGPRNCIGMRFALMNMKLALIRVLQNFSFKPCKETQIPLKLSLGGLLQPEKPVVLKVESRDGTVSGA
Voltage-gated inwardly rectifying potassium channel KCNH2, sequence (Q12809 whole entry): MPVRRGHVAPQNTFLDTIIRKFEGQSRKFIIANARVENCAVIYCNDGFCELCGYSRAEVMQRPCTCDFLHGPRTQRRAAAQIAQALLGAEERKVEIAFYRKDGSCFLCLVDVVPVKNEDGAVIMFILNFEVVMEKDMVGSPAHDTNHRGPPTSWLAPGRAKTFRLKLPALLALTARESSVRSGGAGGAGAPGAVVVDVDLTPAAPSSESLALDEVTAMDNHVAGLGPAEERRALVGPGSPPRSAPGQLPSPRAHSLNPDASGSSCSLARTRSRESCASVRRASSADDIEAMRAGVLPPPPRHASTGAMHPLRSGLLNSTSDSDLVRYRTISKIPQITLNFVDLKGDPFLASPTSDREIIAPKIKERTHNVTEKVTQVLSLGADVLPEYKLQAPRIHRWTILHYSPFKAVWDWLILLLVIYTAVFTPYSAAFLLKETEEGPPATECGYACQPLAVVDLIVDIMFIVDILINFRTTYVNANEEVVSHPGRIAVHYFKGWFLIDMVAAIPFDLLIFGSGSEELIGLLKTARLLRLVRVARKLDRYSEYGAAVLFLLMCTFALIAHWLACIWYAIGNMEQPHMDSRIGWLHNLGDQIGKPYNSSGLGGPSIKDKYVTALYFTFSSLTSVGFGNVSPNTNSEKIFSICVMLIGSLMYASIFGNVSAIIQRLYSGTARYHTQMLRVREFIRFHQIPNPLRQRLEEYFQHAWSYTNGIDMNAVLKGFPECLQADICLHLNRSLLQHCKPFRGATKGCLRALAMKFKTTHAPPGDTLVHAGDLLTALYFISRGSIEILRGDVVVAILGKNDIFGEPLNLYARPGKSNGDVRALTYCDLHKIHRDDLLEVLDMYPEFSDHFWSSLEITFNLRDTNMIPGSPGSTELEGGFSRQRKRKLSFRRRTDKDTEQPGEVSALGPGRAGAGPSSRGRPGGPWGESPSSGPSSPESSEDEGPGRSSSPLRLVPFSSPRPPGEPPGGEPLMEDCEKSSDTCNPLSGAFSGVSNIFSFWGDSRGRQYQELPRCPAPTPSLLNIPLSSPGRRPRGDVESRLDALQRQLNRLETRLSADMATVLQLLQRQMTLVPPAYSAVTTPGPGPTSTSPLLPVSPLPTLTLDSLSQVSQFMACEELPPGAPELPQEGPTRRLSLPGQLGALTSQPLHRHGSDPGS
Cytochrome P450 2D6, sequence (P10635 whole entry, the tested form may be a part): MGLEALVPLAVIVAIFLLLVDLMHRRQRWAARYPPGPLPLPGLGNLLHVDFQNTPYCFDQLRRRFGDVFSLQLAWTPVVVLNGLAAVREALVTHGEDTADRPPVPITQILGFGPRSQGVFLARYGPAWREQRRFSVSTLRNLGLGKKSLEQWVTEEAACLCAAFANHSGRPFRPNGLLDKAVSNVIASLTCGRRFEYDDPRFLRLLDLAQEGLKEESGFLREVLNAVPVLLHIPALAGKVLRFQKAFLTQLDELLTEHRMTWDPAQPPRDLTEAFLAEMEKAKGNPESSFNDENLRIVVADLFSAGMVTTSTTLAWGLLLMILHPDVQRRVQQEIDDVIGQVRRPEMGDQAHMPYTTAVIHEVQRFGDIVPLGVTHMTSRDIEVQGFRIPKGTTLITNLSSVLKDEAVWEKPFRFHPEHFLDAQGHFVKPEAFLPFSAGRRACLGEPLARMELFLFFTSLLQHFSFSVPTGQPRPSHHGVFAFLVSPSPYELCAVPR
Cytochrome P450 2C19, sequence (P33261 whole entry): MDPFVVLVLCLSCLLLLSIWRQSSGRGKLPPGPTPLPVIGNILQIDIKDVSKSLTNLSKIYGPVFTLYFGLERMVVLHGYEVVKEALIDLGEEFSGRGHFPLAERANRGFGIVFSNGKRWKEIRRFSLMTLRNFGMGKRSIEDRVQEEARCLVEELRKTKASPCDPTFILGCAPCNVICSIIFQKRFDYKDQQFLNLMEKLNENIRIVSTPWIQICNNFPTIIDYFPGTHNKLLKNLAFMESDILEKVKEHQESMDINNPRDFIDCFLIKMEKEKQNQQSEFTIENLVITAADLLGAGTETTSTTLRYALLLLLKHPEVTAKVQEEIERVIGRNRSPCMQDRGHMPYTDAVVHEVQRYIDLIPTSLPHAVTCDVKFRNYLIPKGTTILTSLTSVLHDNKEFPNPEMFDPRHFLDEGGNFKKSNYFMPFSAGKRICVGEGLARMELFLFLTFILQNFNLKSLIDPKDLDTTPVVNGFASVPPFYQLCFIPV

Turning to `C[C@H](Nc1cc(Cl)nc2c1cnn2[C@@H]1O[C@H](COP(=O)(O)CP(=O)(O)O)[C@@H](O)[C@H]1O)c1ccccc1F`, the clearance – broadly, the volume of plasma or blood freed of the substance per unit of time – in data set [1] is 1.14 mL/min. Moreover, the Vd in data set [2] came to 6.38 L; in data set [10], 6.98 L. In addition, the IC50 in [3] and in data set [14] was above 10000 nM throughout. Also, the TDI entry in [4], in data set [13] and in [18] was “Not Active” each time. Further, in data set [5], the Cmax (commonly the peak of the concentration-time curve) was determined as 5170 ng/mL. Also, the INH in data set [6], in data set [9] and in data set [15] was above 100 µM throughout. Also, the Activity entry in data set [7] and in data set [8] was “Not Active” each time. The Stabilty entry in data set [11] and in [12] was “Stable” each time. In addition, the half-life (in general, the time needed for the level to fall by half in the phase considered) in data set [16] is 74.2 h; in [17], 66.6 h.

In the case of `C[C@H](Nc1nc(Cl)nc2c1cnn2[C@@H]1O[C@H](COP(=O)(O)CP(=O)(O)O)[C@@H](O)[C@H]1O)c1ccccc1`, the IC50 (usually the point on the concentration scale where inhibition reaches its midpoint) was 0.045 nM in [19]; 0.0027 nM in data set [20]; 0.0085 nM in [21]; 0.053 nM in data set [22]; above 10000 nM in data set [14].

Regarding `C[C@H](Nc1cc(Cl)nc2c1cnn2[C@@H]1O[C@H](COP(=O)(O)CP(=O)(O)O)[C@@H](O)[C@H]1O)c1ccc(F)cc1`, the concentration for half-maximal inhibition (IC50) is 0.115 nM in [19], 0.01 nM in data set [20], 0.021 nM in data set [21] and above 10000 nM in data set [14]. Further, the Stabilty result in [11] and in [12] was “Stable” each time.
